Here are results for eleven compounds from patent US20060128759A1, “Substituted isoxazole derivatives and their use in pharmaceutics” (MERCKLE GMBH, priority 2002, published 2006).

p38α, sequence (Q16539 whole entry): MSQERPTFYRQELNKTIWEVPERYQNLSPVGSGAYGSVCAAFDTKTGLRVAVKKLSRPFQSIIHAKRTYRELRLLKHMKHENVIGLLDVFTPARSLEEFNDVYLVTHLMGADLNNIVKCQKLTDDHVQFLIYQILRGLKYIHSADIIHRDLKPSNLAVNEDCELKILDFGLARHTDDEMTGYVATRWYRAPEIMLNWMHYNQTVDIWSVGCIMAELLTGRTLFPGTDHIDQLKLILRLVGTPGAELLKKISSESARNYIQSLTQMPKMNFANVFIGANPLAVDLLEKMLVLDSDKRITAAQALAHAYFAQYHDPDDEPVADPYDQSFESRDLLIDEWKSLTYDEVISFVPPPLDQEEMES

The first assay has as its target p38α (Homo sapiens, UniProt Q16539). Nature of the assay: Kinase assay (phosphorylation of ATF2 by activated p38α, ELISA readout at 405 nm). The format is biochemical. The settings on record: activated p38α, ATF2 substrate, 100 μM ATP, 37° C., 1 hour; read-out: IC50 p 38. How it is done: • 1) The mononuclear cells (PBMCs) from human potassium-EDTA whole blood, diluted 1:3, are isolated by density gradient centrifugation (Histopaque®-1.077). The cells are washed twice with DPBS buffer, resuspended in macrophage SFM medium and adjusted to a cell count of 1*10^6 cells/ml. • The resulting PBMCs suspension (samples of in each case 390 μl) and the test substance are preincubated at 37° C. in a CO2 incubator (5% CO2; 95% moisture-saturated air) for 15 min. The samples are then stimulated with in each case 1 μl/ml of LPS (E. coli 026:B6) at 37° C. in a CO2 incubator (5% CO2; 95% moisture-saturated air) for 4 hours. The reaction is stopped by placing the samples on ice, adding DPBS buffer and then centrifuging at 15 880*g for 12 min. The amount of IL-1β and TNFα in the plasma supernatant is then determined by ELISA. • 2) Kinase assay • At 37° C., microtiter plates were coated for one hour with 50 μl of ATF2 solution (20 μg/ml). The plates were washed three times with water, and 50 μl of kinase mixture (50 mM tris-HCl 10 mM MgCl2, 10 mM β-glycerol phosphate, 10 μg/ml of BSA, 1 mM DTT, 100 μM ATP, 100 μM Na3VO4, 10 ng of activated p38α) with or without inhibitor were added into the wells, and the plates were incubated at 37° C. for 1 hour. The plates were washed three times and then incubated with phosphorus-ATF-2 antibody at 37° C. for one hour. The plates were once more washed three times, and goat-antirabbit IgG labeled with alkaline phosphatase was added at 37° C. for one hour (to fix the antibody-phosphorylated protein/substrate complex). The plates were washed three times, and the alkaline phosphatase/substrate solution (3 mM 4-NPP, 50 mM NaHCO3, 50 mM MgCl2, 100 μl/well) was added at 37° C. for 1.5 hours. […] The IC50 values were calculated.
Usually IC50 stands for the concentration needed to halve the response being measured. Take “4-[5-(ethoxyphenyl)-4-(4-fluorophenyl)isoxazol-3-yl]pyridine [Compound 11]”: the IC50 is 10 µM.

Regarding `Cc1onc(-c2ccncc2)c1-c1ccc(F)cc1` [Compound 1, 4-[4-(4-fluorophenyl)-5-methylisoxazol-3-yl]pyridine], the IC50 turned out to be 67.5 µM.

For `CC(=O)Nc1cc(-c2onc(-c3ccncc3)c2-c2ccc(F)cc2)ccn1` [Compound 3, N-{4-[4-(4-fluorophenyl)-3-pyridin-4-ylisoxazol-5-yl]pyridine-2-yl}acetamide], the IC50 was determined as 30 µM.

As to `CN(C)Cc1onc(-c2ccncc2)c1-c1ccc(F)cc1` [Compound 4, [4-(4-fluorophenyl)-3-pyridin-4-ylisoxazol-5-ylmethyl]dimethylamine], the IC50 came to 4 µM.

Regarding `Fc1ccc(-c2c(-c3ccncc3)noc2-c2ccccc2)cc1` [Compound 5, 4-[4-(4-fluorophenyl)-5-phenylisoxazol-3-yl]pyridine], the IC50 stood at 22 µM.

Consider `Fc1ccc(-c2c(-c3ccncc3)noc2-c2ccco2)cc1` [Compound 6, 4-[4-(4-fluorophenyl)-5-furan-2-ylisoxazol-3-yl]pyridine], for which the IC50 was determined as 22 µM.

In the case of `Fc1ccc(-c2c(-c3ccncc3)noc2C2CC2)cc1` [Compound 7, 4-[5-cyclopropyl-4-(4-fluorophenyl)isozazol-3-yl]pyridine], the IC50 was found to be 28 µM.

On to `CN(C)c1ccc(-c2onc(-c3ccncc3)c2-c2ccc(F)cc2)cc1` [Compound 8, {4-[4-(4-fluorophenyl)-3-pyridin-4-ylisoxazol-5-yl]phenyl}dimethylamine], for which the IC50 came out at 27 µM.

In the case of `Fc1ccc(-c2c(-c3ccncc3)noc2N2CCCCC2)cc1` [Compound 9, 4-[4-(4-fluorophenyl)-5-piperidin-1-ylisoxazol-3-yl]pyridine], the IC50 was 10 µM.

Turning to `COc1ccc(-c2onc(-c3ccncc3)c2-c2ccc(F)cc2)cc1` [Compound 10, 4-[4-(4-fluorophenyl)-5-(4-methoxyphenyl)isoxazol-3-yl]pyridine], the IC50 came to 10 µM.

Still in this assay, the particulars now being: at 10^−5 mol/l; read-out: % inhibition of p 38.
For orientation: inhibition means the relative decrease from the control value, in per cent. As to `Fc1ccc(-c2noc(-c3ccc(F)cc3)c2-c2ccncc2)cc1` [Compound 14, 4-[3,5-Bis(4-fluorophenyl)isoxazol-4-yl]pyridine], the inhibition at 10 µM is 43.6%.
